Laboratory results published in patent US20220211731A1, “COMPOSITION FOR PROMOTING GLP-1 SECRETION” (SUNTORY HOLDINGS LIMITED, priority 2019, published 2022).

Legend:
H716 = assay: GLP-1 secretion amount of sweeteners, Experimental Example 1; type: cell-based, human; details: H716, stock solution added, quantitation after further 24 hours, PBS as negative control, FIG. 1
Procedure: RebA, RebB, RebM, RebN, RebD, RebC, MogV, and stevioside were examined for their GLP-1 secretion-promoting effects. Specifically, the amount of GLP-1 secretion was measured by the following procedures.
Each test substance B, C, D, E, F, G, I, or J vas dissolved in PBS (Thermo Fisher Scientific Inc.) (Cat. No. 14190250) to obtain a stock solution. The concentration of the stock solution is shown below:
B (RebA); 5 mM, C (RebB); 1M, D (RebM); 2.5 mM, E (RebN); 1M, F (RebD); 2.5 mM, G (RebC); 2.5 mM, I (MogV); 1M, J(stevioside);1M
H716 (ATCC) (Cat. No. ATCC® CCL-251) was cultured in RPMI 1640 (10% FBS ((Thermo Fisher Scientific Inc.) (Cat. No. 10439024), 1 mM Sodium Pyruvate) in an incubator at 37° C., 5% CO2.
The preculture was performed for 2 weeks, and the cells were sufficiently recovered, and then cell stocks were prepared.
Cells were seeded in 96-well plates at 2×10^5 cells/90 μL (high) per well (N=4). At this time, the content of FBS in the medium was lowered to 0.5% to suppress cell proliferation.
After 24 hours, the sample at the highest concentration (i.e., stock solution) was added by 10 each.
After further 24 hours, quantitation of GLP-1 was performed. Specific procedures were followed the user guide of Human GLP-1 (7-36 amide) immunoassay kit (Cat. No. AL359) (Lot number 2361115) provided by PerkinElmer, Inc. PBS was used as a negative control (no sample).

[1] = Measurement of surface tension by plate method; type: physicochemical; details: compared with other glycosides
Procedure: Surface tension Q is measured by a plate method. For example, a glycoside sweetener, which is a test substance, is added in an amount to have Brix 10 on a sucrose basis to prepare an aqueous solution. The surface tension of the prepared aqueous solution is measured by a plate method using an automatic surface tension meter (CBVP-Z type, manufactured by Kyowa Interface Science Co., Ltd).
Aqueous solutions containing RebA, RebD, and RebM (commercially available products) each were prepared. The contents of RebA, RebD, and RebM were aligned to Brix 10 on a sucrose basis. That is, the contents of RebA, RebD, and RebM were 333 ppm, 351 ppm, and 351 ppm, respectively. The surface tension of the obtained aqueous solution was measured by a plate method using an automatic surface tension meter (CBVP-Z type, manufactured by Kyowa Interface Science Co., Ltd). Water was used as a control and tested in the same manner.

[2] = Distribution ratio between pure water and toluene; type: physicochemical; details: organic layer and aqueous layer could not be separated
Procedure: After each about 100 mL of pure water and toluene was charged into a separatory funnel, 30 mg of each steviol glycoside was added. The separatory funnel was sealed to avoid liquid leakage, and stirred with shaking using a shaker for about 30 minutes, and then allowed to stand. When the liquid layer was separated into two layers, the distribution ratio was measured by LCMS after sampling was performed from each layer.

[3] = Dissolution of sample in 1% DMSO-containing PBS; type: physicochemical; details: final concentration of 1.5 mM (#24)
Procedure: To 20 mg of RebC, 21 μL of DMSO (manufactured by FUJIFILM Wako Pure Chemical Corporation, model number: 037-24053) was added. The mixture was then stirred by vortex and allowed to stand for several hours to obtain a stock solution having a RebC concentration of 1,000 mM. The obtained stock solution and PBS were used to prepare a 10 mM solution.
The 10 mM solution was diluted as needed with 1% DMSO-containing PBS to obtain Sample G-1 mM to Sample G-10 mM. The concentrations of RebC are described in Table 1.
For Sample B processed, final concentrations of 0.025 mM (#11) and 0.05 mM (#12) were added to the concentrations to be tested (0.1 to 2.5 mM).

Compound	amount of GLP-1 secretion compared with no sample (H716)	surfactant effect (surface tension) [1]	emulsification phenomenon when measuring the distribution ratio [2]	dissolution of sample [3]
C[C@H](CC[C@@H](O[C@@H]1O[C@H](CO[C@@H]2O[C@H](CO)[C@@H](O)[C@H](O)[C@H]2O)[C@@H](O)[C@H](O)[C@H]1O[C@@H]1O[C@H](CO)[C@@H](O)[C@H](O)[C@H]1O)C(C)(C)O)[C@H]1CC[C@@]2(C)[C@@H]3CC=C4[C@@H](CC[C@H](O[C@@H]5O[C@H](CO[C@@H]6O[C@H](CO)[C@@H](O)[C@H](O)[C@H]6O)[C@@H](O)[C@H](O)[C@H]5O)C4(C)C)[C@]3(C)[C@H](O)C[C@]12C [MogV, mogroside V]	significantly larger amounts of GLP-1 secretion than no sample			
C=C1C[C@@]23CC[C@H]4[C@@](C)(CCC[C@@]4(C)C(=O)O[C@@H]4O[C@H](CO)[C@@H](O)[C@H](O)[C@H]4O)[C@@H]2CC[C@]1(O[C@@H]1O[C@H](CO)[C@@H](O)[C@H](O[C@@H]2O[C@H](CO)[C@@H](O)[C@H](O)[C@H]2O)[C@H]1O[C@@H]1O[C@H](CO)[C@@H](O)[C@H](O)[C@H]1O)C3 [RebA, Rebaudioside A]	significantly larger amounts of GLP-1 secretion than no sample	higher than that of other glycosides	had an emulsification phenomenon	
C=C1C[C@@]23CC[C@H]4[C@@](C)(CCC[C@@]4(C)C(=O)O[C@@H]4O[C@H](CO)[C@@H](O)[C@H](O)[C@H]4O)[C@@H]2CC[C@]1(O[C@@H]1O[C@H](CO)[C@@H](O)[C@H](O)[C@H]1O[C@@H]1O[C@H](CO)[C@@H](O)[C@H](O)[C@H]1O)C3 [stevioside, Stevioside]	significantly larger amounts of GLP-1 secretion than no sample			
rebaudioside B [RebB]	significantly larger amounts of GLP-1 secretion than no sample			
rebaudioside C [RebC]	significantly larger amounts of GLP-1 secretion than no sample			not able to be dissolved
